Results as given in patent US11708344B2, “Flavone derivatives for the treatment and prophylaxis of hepatitis B virus disease” (Hoffmann-La Roche Inc., priority 2018, dated 2023).
Like-named read-outs stand apart in the source and are kept apart here.

Tests used:
[1] = test system: HBeAg (surrogate marker for cccDNA) in HepDES19 cells; assay: Engineered HepDES19 primary screen assay (HBeAg ELISA); format: cell-based, HBV
Method in brief: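 IC50 values come from 4-parameter logistic fits of HBeAg ELISA signal, the cccDNA surrogate, with CCK-8 run in parallel for viability. Compounds at half-log dilutions with 1% DMSO were applied for 5 days at 37 °C to HepDES19 cells previously cultured 8 days without Tet.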

[2] = Human microsome stability assay; format: in vitro ADME; conditions: human liver microsomes, 1 μM test compound, 0.5 mg/mL microsomal protein, 37° C., pH 7.4, 0-30 minutes
Method in brief: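 Parent compound remaining was measured by LC-MS/MS at 0, 3, 6, 9, 15 and 30 min, following ACN quench. Reactions held 1 μM compound and 0.5 mg/mL human liver microsomal protein in pH 7.4 phosphate buffer at 37 °C, started by NADPH regeneration (1 mM NADP, 1 mM MgCl2); controls lacked NADPH.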

[3] = Hepatitis B virus, HepDES19, 120 h, read-out: IC50 (HBeAg level, HepDES19 primary screen assay), HepDES19 cells, 5 days compound incubation, HBeAg ELISA

| SMILES | IC50 [1, 3] [µM] | Clearance of Human microsome [2] [L/h/kg] | IC50 ([1]; read-out: IC50 (HBeAg level, HepDES19 primary screen assay), HepDES19 cells, 5 days compound incubation, HBeAg ELISA) [µM] |
| --- | --- | --- | --- |
| CC(CCOCC(=O)O)Oc1cc(C(F)(F)F)ccc1-c1cc(=O)c2cccc(Cl)c2o1 (stereo not shown) [Example C024, 2-[3-[2-(8-chloro-4-oxo-chromen-2-yl)-5-(trifluoromethyl)phenoxy]butoxy]acetic acid] | 0.909 | 0.369 |  |
| O=c1cc(-c2ncc(Br)cc2OCCO[C@H]2C[C@H](C(=O)O)C2)oc2c(Cl)cccc12 [Example C027] | 1.8 | 0.369 |  |
| O=c1cc(-c2ccc(Br)cc2OCCO[C@H]2C[C@@H](C(=O)O)C2)oc2c(Cl)cc(F)cc12 [Example C028, Cis-3-[2-[5-bromo-2-(8-chloro-6-fluoro-4-oxo-chromen-2-yl)phenoxy]ethoxy]cyclobutanecarboxylic acid] | 3.32 | 0.531 |  |
| O=c1cc(-c2cc(Br)c(F)cc2OCCO[C@H]2C[C@@H](C(=O)O)C2)oc2c(Cl)cccc12 [Example C032-A, Cis-3-[2-[4-bromo-2-(8-chloro-4-oxo-chromen-2-yl)-5-fluoro-phenoxy]ethoxy]cyclobutanecarboxylic acid] | 19.2 | 0.576 |  |
| CCOc1ccc(-c2cc(=O)c3cccc(Cl)c3o2)c(OCCO[C@H]2C[C@@H](C(=O)O)C2)c1 [Example C035-A, Cis-3-[2-[2-(8-chloro-4-oxo-chromen-2-yl)-5-ethoxy-phenoxy]ethoxy]cyclobutanecarboxylic acid] | 12.5 | 0.518 |  |
| CCOc1ccc(-c2cc(=O)c3cccc(Cl)c3o2)c(OCCO[C@H]2C[C@H](C(=O)O)C2)c1 [Example C035-B, Trans-3-[2-[2-(8-chloro-4-oxo-chromen-2-yl)-5-ethoxy-phenoxy]ethoxy]cyclobutanecarboxylic acid] | 17.9 | 0.587 |  |
| O=c1cc(-c2cccc(F)c2OCCO[C@H]2C[C@@H](C(=O)O)C2)oc2c(Cl)cccc12 [Example C037-A, Cis-3-[2-[2-(8-chloro-4-oxo-chromen-2-yl)-6-fluoro-phenoxy]ethoxy]cyclobutanecarboxylic acid] | 0.0975 | 0.369 |  |
| O=c1cc(-c2cccc(F)c2OCCO[C@H]2C[C@H](C(=O)O)C2)oc2c(Cl)cccc12 [Example C037-B, Trans-3-[2-[2-(8-chloro-4-oxo-chromen-2-yl)-6-fluoro-phenoxy]ethoxy]cyclobutanecarboxylic acid] | 0.531 | 0.369 |  |
| Cc1ccc(-c2cc(=O)c3cccc(Cl)c3o2)c(OCCO[C@H]2C[C@H](C(=O)O)C2)c1 [Example C038-B, Trans-3-[2-[2-(8-chloro-4-oxo-chromen-2-yl)-5-methyl-phenoxy]ethoxy]cyclobutanecarboxylic acid] | 1.53 | 0.369 |  |
| COc1ccc(-c2cc(=O)c3cccc(Cl)c3o2)c(OCCO[C@H]2C[C@@H](C(=O)O)C2)c1 [Example C039-A, Cis-3-[2-[2-(8-chloro-4-oxo-chromen-2-yl)-5-methoxy-phenoxy]ethoxy]cyclobutanecarboxylic acid] | 8.91 | 0.369 |  |
| COc1ccc(-c2cc(=O)c3cccc(Cl)c3o2)c(OCCO[C@H]2C[C@H](C(=O)O)C2)c1 [Example C039-B, Trans-3-[2-[2-(8-chloro-4-oxo-chromen-2-yl)-5-methoxy-phenoxy]ethoxy]cyclobutanecarboxylic acid] | 17.5 | 0.369 |  |
| COc1cc(OCCO[C@H]2C[C@@H](C(=O)O)C2)c(-c2cc(=O)c3cccc(Cl)c3o2)cc1Br [Example C040-A, Cis-3-[2-[4-bromo-2-(8-chloro-4-oxo-chromen-2-yl)-5-methoxy-phenoxy]ethoxy]cyclobutanecarboxylic acid] | 13.2 | 0.511 |  |
| O=c1cc(-c2cc(C(F)(F)F)c(Br)cc2OCCO[C@H]2C[C@@H](C(=O)O)C2)oc2c(Cl)cccc12 [Example C042-A] | 12.7 | 0.454 |  |
| O=c1cc(-c2cc(F)c(Br)cc2OCCO[C@H]2C[C@H](C(=O)O)C2)oc2c(Cl)cccc12 [Example C044-B, Trans-3-[2-[5-bromo-2-(8-chloro-4-oxo-chromen-2-yl)-4-fluoro-phenoxy]ethoxy]cyclobutanecarboxylic acid] | 1.57 | 0.56 |  |
| O=c1cc(-c2ccc(F)cc2OCCO[C@H]2C[C@@H](C(=O)O)C2)oc2c(Cl)cc(F)cc12 [Example C045-A, Cis-3-[2-[2-(8-chloro-6-fluoro-4-oxo-chromen-2-yl)-5-fluoro-phenoxy]ethoxy]cyclobutanecarboxylic acid] | 2.62 | 0.392 |  |
| O=c1cc(-c2ccc(F)cc2OCCO[C@H]2C[C@H](C(=O)O)C2)oc2c(Cl)cc(F)cc12 [Example C045-B, Trans-3-[2-[2-(8-chloro-6-fluoro-4-oxo-chromen-2-yl)-5-fluoro-phenoxy]ethoxy]cyclobutanecarboxylic acid] | 2.88 | 0.566 |  |
| O=c1cc(-c2ccccc2OCCO[C@H]2C[C@H](C(=O)O)C2)oc2c(Br)cccc12 [Example C046-B, Trans-3-[2-[2-(8-bromo-4-oxo-chromen-2-yl)phenoxy]ethoxy]cyclobutanecarboxylic acid] |  | 0.369 | 0.251 |
| O=c1cc(-c2ccccc2OCCO[C@H]2C[C@@H](C(=O)O)C2)oc2c(C(F)(F)F)cccc12 [Example C047-A, Cis-3-[2-[2-[4-oxo-8-(trifluoromethyl)chromen-2-yl]phenoxy]ethoxy]cyclobutanecarboxylic acid] | 16.6 | 0.369 |  |
| O=c1cc(-c2ccccc2OCCO[C@H]2C[C@H](C(=O)O)C2)oc2c(C(F)(F)F)cccc12 [Example C047-B, Trans-3-[2-[2-[4-oxo-8-(trifluoromethyl)chromen-2-yl]phenoxy]ethoxy]cyclobutanecarboxylic acid] | 14 | 0.369 |  |
| Cc1ccc(OCCO[C@H]2C[C@@H](C(=O)O)C2)c(-c2cc(=O)c3cccc(Cl)c3o2)c1 [Example C050-A, Cis-3-[2-[2-(8-chloro-4-oxo-chromen-2-yl)-4-methyl-phenoxy]ethoxy]cyclobutanecarboxylic acid] | 15.6 | 0.369 |  |
| Cc1ccc(OCCO[C@H]2C[C@H](C(=O)O)C2)c(-c2cc(=O)c3cccc(Cl)c3o2)c1 [Example C050-B, Trans-3-[2-[2-(8-chloro-4-oxo-chromen-2-yl)-4-methyl-phenoxy]ethoxy]cyclobutanecarboxylic acid] | 0.137 | 0.369 |  |
| CCOc1ccc(OCCO[C@H]2C[C@@H](C(=O)O)C2)c(-c2cc(=O)c3cccc(Cl)c3o2)c1 [Example C051-A, Cis-3-[2-[2-(8-chloro-4-oxo-chromen-2-yl)-4-ethoxy-phenoxy]ethoxy]cyclobutanecarboxylic acid] | 4.14 | 0.369 |  |
| CCOc1ccc(OCCO[C@H]2C[C@H](C(=O)O)C2)c(-c2cc(=O)c3cccc(Cl)c3o2)c1 [Example C051-B, Trans-3-[2-[2-(8-chloro-4-oxo-chromen-2-yl)-4-ethoxy-phenoxy]ethoxy]cyclobutanecarboxylic acid] | 9.41 | 0.471 |  |
| O=c1cc(-c2ccc(OC(F)(F)F)cc2OCCO[C@H]2C[C@@H](C(=O)O)C2)oc2c(Cl)cccc12 [Example C052-A, Cis-3-[2-[2-(8-chloro-4-oxo-chromen-2-yl)-5-(trifluoromethoxy)phenoxy]ethoxy]cyclobutanecarboxylic acid] | 5.99 | 0.545 |  |
| O=c1cc(-c2ccc(Br)cc2OCCCO[C@H]2C[C@@H](C(=O)O)C2)oc2c(Cl)cccc12 [Example C056-A, Cis-3-[3-[5-bromo-2-(8-chloro-4-oxo-chromen-2-yl)phenoxy]propoxy]cyclobutanecarboxylic acid] | 2.39 | 0.369 |  |
| O=c1cc(-c2cc(Cl)c(Br)cc2OCCO[C@H]2C[C@@H](C(=O)O)C2)oc2c(Cl)cccc12 [Example C057-A, Cis-3-[2-[5-bromo-4-chloro-2-(8-chloro-4-oxo-chromen-2-yl)phenoxy]ethoxy]cyclobutanecarboxylic acid] | 5.01 | 0.48 |  |
| COc1ccc(OCCOC2CC(C(=O)O)C2)c(-c2cc(=O)c3cccc(Cl)c3o2)c1 (stereo not shown) [Example C060, 3-[2-[2-(8-chloro-4-oxo-chromen-2-yl)-4-methoxy-phenoxy]ethoxy]cyclobutanecarboxylic acid] | 9.81 | 0.369 |  |
| O=c1cc(-c2ccc(N3CCCC3)cc2OCCO[C@H]2C[C@@H](C(=O)O)C2)oc2c(Cl)cccc12 [Example C068, cis-3-[2-[2-(8-chloro-4-oxo-chromen-2-yl)-5-pyrrolidin-1-yl-phenoxy]ethoxy]cyclobutanecarboxylic acid] | 4.74 | 0.369 |  |
| O=c1cc(-c2cccc(Br)c2OCCO[C@H]2C[C@@H](C(=O)O)C2)oc2c(Cl)cc(F)cc12 [Example C070, Cis-3-[2-[2-bromo-6-(8-chloro-6-fluoro-4-oxo-chromen-2-yl)phenoxy]ethoxy]cyclobutanecarboxylic acid] | 13.1 | 0.565 |  |
